Experimental data: PubChem BioAssay AID1963974 (Molecular Pharmacology Branch, DTP, NCI, 2024)

Tested on: 648629-189-R-J1-PDC spheroids with HUVEC/MSC, viability
Assay: Anticancer human tumor 648629-189-R-J1-PDC patient-derived bladder carcinoma cell line growth inhibition [PI3K]
Details: for IC50: curve of first compound; for viability, T/C: stronger effect = lower value
Method in brief: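 We assembled tumor spheroids that included a stromal compartment of HUVEC and MSCs, then exposed them to targeted agents alone and together with PI3K pathway inhibitors. Concentration series descended by half-log from clinically achievable Cmax levels. Viability served as the endpoint.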

[1] = second compound 0.0316 µM, first compound 0.0316 µM
[2] = second compound 0.0316 µM, first compound 0.1 µM
[3] = second compound 0.0316 µM, first compound 0.316 µM
[4] = second compound 0.0316 µM, first compound 1 µM
[5] = second compound 0.1 µM, first compound 0.0316 µM
[6] = second compound 0.1 µM, first compound 0.1 µM
[7] = second compound 0.1 µM, first compound 0.316 µM
[8] = second compound 0.1 µM, first compound 1 µM
[9] = second compound 0.316 µM, first compound 0.0316 µM
[10] = second compound 0.316 µM, first compound 0.1 µM
[11] = second compound 0.316 µM, first compound 0.316 µM
[12] = second compound 0.316 µM, first compound 1 µM
[13] = second compound 1 µM, first compound 0.0316 µM
[14] = second compound 1 µM, first compound 0.1 µM
[15] = second compound 1 µM, first compound 0.316 µM
[16] = second compound 1 µM, first compound 1 µM
[17] = second compound 3.16 µM, first compound 0.0316 µM
[18] = second compound 3.16 µM, first compound 0.1 µM
[19] = second compound 3.16 µM, first compound 0.316 µM
[20] = second compound 3.16 µM, first compound 1 µM
[21] = second compound 10 µM, first compound 0.0316 µM
[22] = second compound 10 µM, first compound 0.1 µM
[23] = second compound 10 µM, first compound 0.316 µM
[24] = second compound 10 µM, first compound 1 µM
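Also: spheroids exposed to agents for seven days before reading.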
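For viability, T/C in this document: percent of vehicle control luminescence where 100% = DMSO treated spheroids.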

## CC(C)NCC(C(=O)N1CCN(c2ncnc3c2C(C)CC3O)CC1)c1ccc(Cl)cc1 (centres undefined) + CC(Nc1ncnc2nc[nH]c12)c1cc2cccc(Cl)c2c(=O)n1-c1ccccc1
Second compound 0.0316 µM
  IC50: 1.05 µM
Second compound 0.1 µM
  IC50: 1.52 µM
Second compound 0.316 µM
  IC50: 1.14 µM
Second compound 1 µM
  IC50: 1.23 µM
Second compound 3.16 µM
  IC50: 0.904 µM
Second compound 10 µM
  IC50: 1.01 µM
[1]
  viability, T/C: 99.8%
[2]
  viability, T/C: 93.6%
[3]
  viability, T/C: 82%
[4]
  viability, T/C: 49.4%
Second compound 0.0316 µM, first compound 3.16 µM
  viability, T/C: 28.9%
Second compound 0.0316 µM, first compound 10 µM
  viability, T/C: 17.3%
[5]
  viability, T/C: 97.3%
[6]
  viability, T/C: 90.3%
[7]
  viability, T/C: 79.7%
[8]
  viability, T/C: 61.3%
Second compound 0.1 µM, first compound 3.16 µM
  viability, T/C: 32.2%
Second compound 0.1 µM, first compound 10 µM
  viability, T/C: 19.3%
[9]
  viability, T/C: 97.4%
[10]
  viability, T/C: 91.2%
[11]
  viability, T/C: 76.3%
[12]
  viability, T/C: 53.4%
Second compound 0.316 µM, first compound 3.16 µM
  viability, T/C: 29.2%
Second compound 0.316 µM, first compound 10 µM
  viability, T/C: 17.7%
[13]
  viability, T/C: 93.6%
[14]
  viability, T/C: 94.5%
[15]
  viability, T/C: 80.7%
[16]
  viability, T/C: 54.2%
Second compound 1 µM, first compound 3.16 µM
  viability, T/C: 29.4%
Second compound 1 µM, first compound 10 µM
  viability, T/C: 17.5%
[17]
  viability, T/C: 101%
[18]
  viability, T/C: 91.3%
[19]
  viability, T/C: 72.6%
[20]
  viability, T/C: 48.6%
Second compound 3.16 µM, first compound 3.16 µM
  viability, T/C: 25.9%
Second compound 3.16 µM, first compound 10 µM
  viability, T/C: 15.5%
[21]
  viability, T/C: 83.8%
[22]
  viability, T/C: 72.2%
[23]
  viability, T/C: 79.4%
[24]
  viability, T/C: 48.4%
Second compound 10 µM, first compound 3.16 µM
  viability, T/C: 28.3%
Second compound 10 µM, first compound 10 µM
  viability, T/C: 18.2%

## CCN1CCN(Cc2ccc(Nc3ncc(F)c(-c4cc(F)c5nc(C)n(C(C)C)c5c4)n3)nc2)CC1 + CC(Nc1ncnc2nc[nH]c12)c1cc2cccc(Cl)c2c(=O)n1-c1ccccc1
Second compound 0.0316 µM
  IC50: > 1 µM
Second compound 0.1 µM
  IC50: > 1 µM
Second compound 0.316 µM
  IC50: > 1 µM
Second compound 1 µM
  IC50: > 1 µM
Second compound 3.16 µM
  IC50: > 1 µM
Second compound 10 µM
  IC50: > 1 µM
Second compound 0.0316 µM, first compound 0.00316 µM
  viability, T/C: 90.1%
Second compound 0.0316 µM, first compound 0.01 µM
  viability, T/C: 96.2%
[1]
  viability, T/C: 105%
[2]
  viability, T/C: 111%
[3]
  viability, T/C: 113%
[4]
  viability, T/C: 122%
Second compound 0.1 µM, first compound 0.00316 µM
  viability, T/C: 107%
Second compound 0.1 µM, first compound 0.01 µM
  viability, T/C: 99.4%
[5]
  viability, T/C: 103%
[6]
  viability, T/C: 101%
[7]
  viability, T/C: 101%
[8]
  viability, T/C: 135%
Second compound 0.316 µM, first compound 0.00316 µM
  viability, T/C: 105%
Second compound 0.316 µM, first compound 0.01 µM
  viability, T/C: 96.3%
[9]
  viability, T/C: 98%
[10]
  viability, T/C: 108%
[11]
  viability, T/C: 113%
[12]
  viability, T/C: 109%
Second compound 1 µM, first compound 0.00316 µM
  viability, T/C: 106%
Second compound 1 µM, first compound 0.01 µM
  viability, T/C: 92.5%
[13]
  viability, T/C: 100%
[14]
  viability, T/C: 90.3%
[15]
  viability, T/C: 103%
[16]
  viability, T/C: 96.4%
Second compound 3.16 µM, first compound 0.00316 µM
  viability, T/C: 85.8%
Second compound 3.16 µM, first compound 0.01 µM
  viability, T/C: 106%
[17]
  viability, T/C: 86.8%
[18]
  viability, T/C: 88.2%
[19]
  viability, T/C: 111%
[20]
  viability, T/C: 105%
Second compound 10 µM, first compound 0.00316 µM
  viability, T/C: 85.6%
Second compound 10 µM, first compound 0.01 µM
  viability, T/C: 80.7%
[21]
  viability, T/C: 84.4%
[22]
  viability, T/C: 88%
[23]
  viability, T/C: 87%
[24]
  viability, T/C: 75.5%
